Data on two compounds can be found in patent US10562857B2 (AFASCI, Inc., priority 2015, dated 2020).

Data set [1] has as its system Ames microsomemutagenicity assay. Briefly: Ames microsome mutagenicity assay. In kind it is cell-based. From the text: Moreover, compounds useful in therapeutic formulations may be further screened for undesired side effect activities by utilizing large ancillary pharmacology panel screens, for example, SafetyScreen 44 and the Ames microsomemutagenicity assay (Eurofins-Cerep, US and France).

The next data set concerns CFA mice. Briefly: Complete Freund's Adjuvant (CFA)-induced inflammatory pain in mice, von Frey test. In kind it is in vivo, mouse. Conditions: 30 mg/kg I.P. On the procedure:
FIG. 7. Effects of EXAMPLE-96, 107 or 115 (each 30 mg/kg, I.P.) or gabapentin (as a benchmark, 100 mg/kg, I.P) on Complete Freund's Adjuvant (CFA)-induced inflammation in male, mice (C57BL/6, ˜2 months old; n=8 mice per group). Mechanical pain threshold assessment of CFA mice's left hindpaws were measured using von Frey monofilament test at 0.5, 1, 2, 4, and 6 hours after treatment.
Because knockout or antisense knockdown of the Cav3.2 isoform produces analgesic effects in neuropathic pain as well as in inflammatory pain in mice (Choi et al., 2007), we used the Complete Freund adjuvant (CFA)-inflammatory pain in mice to investigate the drug effects. EXAMPLE-96, -115, and -107 (each at 30 mg/kg, I.P.) and a reference gabapentin (100 mg/kg, I.P.) was individually administered to mice that had CFA-induced inflammation on their left hindpaws.

`CC(C)(C)NC(=O)CN1CCC2(CC1)CC2NC(=O)c1cc(F)cc(Cl)c1` (single isomer, unassigned) [Example 128, (S)—N-(6-(2-(tert-Butylamino)-2-oxoethyl)-6-azaspiro[2.5]octan-1-yl)-3-chloro-5-fluorobenzamide or (R)—N-(6-(2-(tert-Butylamino)-2-oxoethyl)-6-azaspiro[2.5]octan-1-yl)-3-chloro-5-fluorobenzamide]: the mutagenicity entry in data set [1] is “lack of mutagenicity”.
On to `O=C(Nc1nnc(-c2ccccc2)o1)c1ccc(Cl)s1` [Example 115, 5-Chloro-N-(5-phenyl-1,3,4-oxadiazol-2-yl)thiophene-2-carboxamide], for which, in the data set with CFA mice, the “mechanical pain threshold, CFA-induced inflammation” value was “showed an analgesic effect in mechanical pain”.
